Results as given in the supplement of paper PMC10307832.

Columns and labels:
Test in all cases: relative viability (nuclei count vs DMSO), 5 days (fraction); higher = more cells survive
Adavosertib + Navitoclax = compound: C=CCn1c(=O)c2cnc(Nc3ccc(N4CCN(C)CC4)cc3)nc2n1-c1cccc(C(C)(C)O)n1 [Adavosertib] + CC1(C)CCC(c2ccc(Cl)cc2)=C(CN2CCN(c3ccc(C(=O)NS(=O)(=O)c4ccc(N[C@H](CCN5CCOCC5)CSc5ccccc5)c(S(=O)(=O)C(F)(F)F)c4)cc3)CC2)C1 [Navitoclax] (partner 0.5 µM)
Method in brief: (§1)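 Five library-drug doses in √10 steps were combined with a fixed anchor-drug dose, or a single drug was given alone, by pin tool to lung cancer cell lines in 1536-well plates the day after seeding. Nuclei were stained and counted after 5 days. Relative viability is the nuclei count in treated wells over that in vehicle wells, taken as the median of duplicate plates.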

Adavosertib + Lapatinib = compound: C=CCn1c(=O)c2cnc(Nc3ccc(N4CCN(C)CC4)cc3)nc2n1-c1cccc(C(C)(C)O)n1 [Adavosertib] + CS(=O)(=O)CCNCc1ccc(-c2ccc3ncnc(Nc4ccc(OCc5cccc(F)c5)c(Cl)c4)c3c2)o1 [Lapatinib] (partner 2 µM)
Method in brief: as §1

Nelarabine + Luminespib = compound: COc1nc(N)nc2c1ncn2[C@@H]1O[C@H](CO)[C@@H](O)[C@@H]1O [Nelarabine] + CCNC(=O)c1noc(-c2cc(C(C)C)c(O)cc2O)c1-c1ccc(CN2CCOCC2)cc1 [Luminespib] (partner 0.01 µM)
Method in brief: as §1

Nelarabine + Dasatinib = compound: COc1nc(N)nc2c1ncn2[C@@H]1O[C@H](CO)[C@@H](O)[C@@H]1O [Nelarabine] + Cc1nc(Nc2ncc(C(=O)Nc3c(C)cccc3Cl)s2)cc(N2CCN(CCO)CC2)n1 [Dasatinib] (partner 0.075 µM)
Method in brief: as §1

| Cell Line | relative viability (Adavosertib + Navitoclax; first compound 0.01 µM) | relative viability (Adavosertib + Navitoclax; first compound 0.03162 µM) | relative viability (Adavosertib + Navitoclax; first compound 0.1 µM) | relative viability (Adavosertib + Navitoclax; first compound 0.3162 µM) | relative viability (Adavosertib + Lapatinib; first compound 0.01 µM) | relative viability (Adavosertib + Lapatinib; first compound 0.03162 µM) | relative viability (Adavosertib + Lapatinib; first compound 0.1 µM) | relative viability (Adavosertib + Lapatinib; first compound 0.3162 µM) | relative viability (Nelarabine + Luminespib; first compound 0.01 µM) | relative viability (Nelarabine + Luminespib; first compound 0.1 µM) | relative viability (Nelarabine + Luminespib; first compound 0.3162 µM) | relative viability (Nelarabine + Luminespib; first compound 1 µM) | relative viability (Nelarabine + Dasatinib; first compound 0.01 µM) | relative viability (Nelarabine + Dasatinib; first compound 0.1 µM) | relative viability (Nelarabine + Dasatinib; first compound 0.3162 µM) | relative viability (Nelarabine + Dasatinib; first compound 1 µM) | relative viability (Nelarabine + Luminespib; first compound 0.03162 µM) | relative viability (Nelarabine + Dasatinib; first compound 0.03162 µM) |
| --- | --- | --- | --- | --- | --- | --- | --- | --- | --- | --- | --- | --- | --- | --- | --- | --- | --- | --- |
| LK-2 | 0.98 | 0.882 | 0.989 | 0.808 | 0.866 | 1.05 | 1.01 | 0.97 | 0.161 | 0.178 | 0.146 | 0.173 | 0.337 | 0.216 | 0.352 | 0.266 | – | – |
| NCI-H650 | – | – | – | – | 0.856 | 1.28 | 1.1 | 0.808 | 0.857 | 0.759 | 0.708 | 0.718 | 0.501 | 0.417 | 0.51 | 0.468 | 0.726 | 0.48 |
| NCI-H1703 | 1.27 | 0.877 | 1.11 | 0.157 | 1.19 | 1.1 | 0.93 | 0.257 | – | – | – | – | – | – | – | – | – | – |
| Calu-6 | 0.819 | 0.898 | 0.88 | 0.239 | 1.07 | 1 | 1.04 | 0.356 | – | – | – | – | – | – | – | – | – | – |
| NCI-H1623 | – | – | – | – | – | – | – | – | 0.467 | 0.588 | 0.483 | 0.621 | 0.525 | 0.51 | 0.559 | 0.517 | 0.574 | 0.563 |
| NCI-H1563 | – | – | – | – | 1.02 | 1.02 | 0.969 | 0.932 | 0.527 | 0.584 | 0.549 | 0.564 | 0.458 | 0.427 | 0.42 | 0.406 | 0.58 | 0.437 |
| NCI-H522 | – | – | – | – | – | – | – | – | – | 1.25 | 0.96 | 1.29 | 0.863 | 1.07 | 0.801 | 0.993 | 0.993 | 0.866 |
| LCLC-103H | – | – | – | – | – | – | – | – | 1.26 | 0.969 | 1.06 | 0.99 | 0.458 | 0.342 | 0.499 | 0.471 | 0.905 | 0.45 |
| NCI-H2342 | – | – | – | – | – | – | – | – | 0.775 | 0.657 | 0.753 | 0.765 | 0.324 | 0.282 | 0.346 | 0.29 | 0.707 | 0.302 |
| HCC-78 | 0.81 | 0.686 | 0.894 | 0.79 | 0.509 | 0.972 | 0.782 | 0.868 | – | – | – | – | 0.384 | – | 0.459 | 0.37 | – | 0.358 |
| A549 | 1.21 | 1.26 | 1.26 | 0.901 | 0.908 | 1.01 | 1.06 | 0.743 | – | – | – | – | – | – | – | – | – | – |
| NCI-H661 | – | – | – | – | 0.542 | 0.601 | 0.514 | 0.363 | 1.04 | 0.928 | 0.914 | 0.911 | 1 | 0.953 | 0.934 | 0.853 | 1.09 | 0.913 |
| NCI-H441 | 0.645 | 0.741 | 0.64 | 0.401 | – | – | – | – | 0.306 | 0.286 | 0.294 | 0.268 | 0.598 | 0.43 | 0.596 | 0.784 | 0.372 | 0.516 |
